Assay results taken from PubChem BioAssay AID2060884 (Molecular Pharmacology Branch, DTP, NCI, 2025).

System: NCI-H929 complex spheroids, viability % test/control
Assay: Anticancer human tumor NCI-H929 cell line growth inhibition [RAS];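 also: compound exposure lasted seven days before viability was read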;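 as to viability, T/C: 100% = DMSO vehicle control viability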
Details: for IC50: curve of first compound; for viability, T/C: stronger effect = lower value; active = viability on the fitted dose curve at most 10% of control; inactive = the rest
Method in brief: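 Tumour cells grown as complex spheroids with HUVEC endothelial cells and mesenchymal stem cells, treated with RAS pathway inhibitor combinations. Each agent spans half-log steps from near clinical Cmax, or 10 microM where Cmax is unknown.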

Nc1ccn(C2OC(CO)C(O)C2(F)F)c(=O)n1 (stereo unspecified) + C=CC(=O)N1CCN(c2nc(OCC3CCCN3C)nc3c(F)c(-c4nc(N)cc(C)c4C(F)(F)F)c(Cl)cc23)C(C)C1
18.4 nM: IC50 (second compound 0.00316 µM) | IC50 (second compound 0.01 µM) | IC50 (second compound 0.0316 µM)
17.7 nM: IC50 (second compound 0.1 µM)
inactive: viability, T/C (second compound 0.00316 µM, first compound 0.00316 µM) 102% | viability, T/C (second compound 0.00316 µM, first compound 0.01 µM) 106% | viability, T/C (second compound 0.01 µM, first compound 0.00316 µM) 97.8% | viability, T/C (second compound 0.01 µM, first compound 0.01 µM) 111% | viability, T/C (second compound 0.0316 µM, first compound 0.00316 µM) 94.8% | viability, T/C (second compound 0.0316 µM, first compound 0.01 µM) 114% | viability, T/C (second compound 0.1 µM, first compound 0.00316 µM) 99.3% | viability, T/C (second compound 0.1 µM, first compound 0.01 µM) 97.3% | viability, T/C (second compound 0.316 µM, first compound 0.00316 µM) 101% | viability, T/C (second compound 0.316 µM, first compound 0.01 µM) 114% | viability, T/C (second compound 1 µM, first compound 0.00316 µM) 103% | viability, T/C (second compound 1 µM, first compound 0.01 µM) 118%
active: viability, T/C (second compound 0.00316 µM, first compound 0.0316 µM) 1.52% | viability, T/C (second compound 0.00316 µM, first compound 0.1 µM) 2.24% | viability, T/C (second compound 0.00316 µM, first compound 0.316 µM) 1.73% | viability, T/C (second compound 0.00316 µM, first compound 1 µM) 0.82% | viability, T/C (second compound 0.01 µM, first compound 0.0316 µM) 1.3% | viability, T/C (second compound 0.01 µM, first compound 0.1 µM) 2.1% | viability, T/C (second compound 0.01 µM, first compound 0.316 µM) 1.62% | viability, T/C (second compound 0.01 µM, first compound 1 µM) 0.86% | viability, T/C (second compound 0.0316 µM, first compound 0.0316 µM) 1.48% | viability, T/C (second compound 0.0316 µM, first compound 0.1 µM) 1.95% | viability, T/C (second compound 0.0316 µM, first compound 0.316 µM) 1.12% | viability, T/C (second compound 0.0316 µM, first compound 1 µM) 0.76% | viability, T/C (second compound 0.1 µM, first compound 0.0316 µM) 1.86% | viability, T/C (second compound 0.1 µM, first compound 0.1 µM) 2.03% | viability, T/C (second compound 0.1 µM, first compound 0.316 µM) 1.73% | viability, T/C (second compound 0.1 µM, first compound 1 µM) 1% | viability, T/C (second compound 0.316 µM, first compound 0.0316 µM) 1.08% | viability, T/C (second compound 0.316 µM, first compound 0.1 µM) 1.62% | viability, T/C (second compound 0.316 µM, first compound 0.316 µM) 1.46% | viability, T/C (second compound 0.316 µM, first compound 1 µM) 0.81% | viability, T/C (second compound 1 µM, first compound 0.0316 µM) 1.88% | viability, T/C (second compound 1 µM, first compound 0.1 µM) 2.07% | viability, T/C (second compound 1 µM, first compound 0.316 µM) 0.99% | viability, T/C (second compound 1 µM, first compound 1 µM) 0.9%
18.6 nM: IC50 (second compound 0.316 µM)
18.9 nM: IC50 (second compound 1 µM)

CC1(C)CCC(Nc2ncc(C(F)(F)F)c(-c3c[nH]c4c(P(C)(C)=O)c(C#N)ccc34)n2)CN1 (stereo unspecified)
9.57% [middle of 4 runs]: viability, T/C (compound 0.0949 µM)
8.74% [middle of 4 runs]: viability, T/C (compound 0.03 µM)
14.5% [middle of 4 runs]: viability, T/C (compound 0.00949 µM)
5.41% [middle of 4 runs]: viability, T/C (compound 0.3 µM)
